With `Nc1cncc(Cl)n1` the solubility (mole fraction) (in DMF, 278.15 K) was 0.00915, the solubility (mole fraction) (in DMF, 283.15 K) was 0.0111 and the solubility (mole fraction) (in DMF, 288.15 K) was 0.0135. For the same molecule, the solubility (mole fraction) (in DMF, 293.15 K) was 0.0162, the solubility (mole fraction) (in DMF, 298.15 K) was 0.0194 and the solubility (mole fraction) (in DMF, 303.15 K) was 0.023. For the same molecule, the solubility (mole fraction) (in DMF, 308.15 K) was 0.0271, the solubility (mole fraction) (in DMF, 313.15 K) was 0.0322 and the solubility (mole fraction) (in DMF, 318.15 K) was 0.0378. For the same molecule, the solubility (mole fraction) (in DMF, 323.15 K) was 0.0442, the solubility (mole fraction) (in acetone, 278.15 K) was 0.0117 and the solubility (mole fraction) (in acetone, 283.15 K) was 0.0141. The solubility (mole fraction) (in acetone, 288.15 K) was 0.0167, the solubility (mole fraction) (in acetone, 293.15 K) was 0.0198 and the solubility (mole fraction) (in acetone, 298.15 K) was 0.0231. The solubility (mole fraction) (in acetone, 303.15 K) was 0.0269, the solubility (mole fraction) (in acetone, 308.15 K) was 0.0314 and the solubility (mole fraction) (in acetone, 313.15 K) was 0.0371. It also gave a solubility (mole fraction) (in acetone, 318.15 K) of 0.0431, a solubility (mole fraction) (in acetone, 323.15 K) of 0.0505 and a solubility (mole fraction) (in acetonitrile, 278.15 K) of 0.00984. The solubility (mole fraction) (in acetonitrile, 283.15 K) was 0.0119, the solubility (mole fraction) (in acetonitrile, 288.15 K) was 0.0143 and the solubility (mole fraction) (in acetonitrile, 293.15 K) was 0.0172. The solubility (mole fraction) (in acetonitrile, 298.15 K) was 0.0209, the solubility (mole fraction) (in acetonitrile, 303.15 K) was 0.0248 and the solubility (mole fraction) (in acetonitrile, 308.15 K) was 0.0295. It also gave a solubility (mole fraction) (in acetonitrile, 313.15 K) of 0.0352, a solubility (mole fraction) (in acetonitrile, 318.15 K) of 0.041 and a solubility (mole fraction) (in acetonitrile, 323.15 K) of 0.0488. The solubility (mole fraction) (in ethanol, 278.15 K) was 0.00159, the solubility (mole fraction) (in ethanol, 283.15 K) was 0.0019 and the solubility (mole fraction) (in ethanol, 288.15 K) was 0.00226. The solubility (mole fraction) (in ethanol, 293.15 K) was 0.00272, the solubility (mole fraction) (in ethanol, 298.15 K) was 0.00323 and the solubility (mole fraction) (in ethanol, 303.15 K) was 0.00384. It also gave a solubility (mole fraction) (in ethanol, 308.15 K) of 0.00453, a solubility (mole fraction) (in ethanol, 313.15 K) of 0.0053 and a solubility (mole fraction) (in ethanol, 318.15 K) of 0.00624. The solubility (mole fraction) (in ethanol, 323.15 K) was 0.00756, the solubility (mole fraction) (in ethylene glycol, 278.15 K) was 0.000717 and the solubility (mole fraction) (in ethylene glycol, 283.15 K) was 0.000905. It also gave a solubility (mole fraction) (in ethylene glycol, 288.15 K) of 0.00113, a solubility (mole fraction) (in ethylene glycol, 293.15 K) of 0.00141 and a solubility (mole fraction) (in ethylene glycol, 298.15 K) of 0.00172. The solubility (mole fraction) (in ethylene glycol, 303.15 K) was 0.00204, the solubility (mole fraction) (in ethylene glycol, 308.15 K) was 0.00239 and the solubility (mole fraction) (in ethylene glycol, 313.15 K) was 0.00281. It also gave a solubility (mole fraction) (in ethylene glycol, 318.15 K) of 0.00325, a solubility (mole fraction) (in ethylene glycol, 323.15 K) of 0.00377 and a solubility (mole fraction) (in isopropanol, 278.15 K) of 0.00421. The solubility (mole fraction) (in isopropanol, 283.15 K) was 0.00503, the solubility (mole fraction) (in isopropanol, 288.15 K) was 0.00608 and the solubility (mole fraction) (in isopropanol, 293.15 K) was 0.00737. For the same molecule, the solubility (mole fraction) (in isopropanol, 298.15 K) was 0.00874, the solubility (mole fraction) (in isopropanol, 303.15 K) was 0.0104 and the solubility (mole fraction) (in isopropanol, 308.15 K) was 0.0122. It also gave a solubility (mole fraction) (in isopropanol, 313.15 K) of 0.0146, a solubility (mole fraction) (in isopropanol, 318.15 K) of 0.017 and a solubility (mole fraction) (in isopropanol, 323.15 K) of 0.0198. For the same molecule, the solubility (mole fraction) (in methanol, 278.15 K) was 0.00114, the solubility (mole fraction) (in methanol, 283.15 K) was 0.00135 and the solubility (mole fraction) (in methanol, 288.15 K) was 0.00164. The solubility (mole fraction) (in methanol, 293.15 K) was 0.00196, the solubility (mole fraction) (in methanol, 298.15 K) was 0.00244 and the solubility (mole fraction) (in methanol, 303.15 K) was 0.00293. The solubility (mole fraction) (in methanol, 308.15 K) was 0.00347, the solubility (mole fraction) (in methanol, 313.15 K) was 0.00415 and the solubility (mole fraction) (in methanol, 318.15 K) was 0.00489. The solubility (mole fraction) (in methanol, 323.15 K) was 0.00575, the solubility (mole fraction) (in n-propanol, 278.15 K) was 0.00494 and the solubility (mole fraction) (in n-propanol, 283.15 K) was 0.00588. It also gave a solubility (mole fraction) (in n-propanol, 288.15 K) of 0.00709, a solubility (mole fraction) (in n-propanol, 293.15 K) of 0.00858 and a solubility (mole fraction) (in n-propanol, 298.15 K) of 0.0105. The solubility (mole fraction) (in n-propanol, 303.15 K) was 0.0127, the solubility (mole fraction) (in n-propanol, 308.15 K) was 0.0152 and the solubility (mole fraction) (in n-propanol, 313.15 K) was 0.0181. For the same molecule, the solubility (mole fraction) (in n-propanol, 318.15 K) was 0.0211, the solubility (mole fraction) (in n-propanol, 323.15 K) was 0.0246 and the solubility (mole fraction) (in propylene glycol, 278.15 K) was 0.000917. For the same molecule, the solubility (mole fraction) (in propylene glycol, 283.15 K) was 0.00115, the solubility (mole fraction) (in propylene glycol, 288.15 K) was 0.00139 and the solubility (mole fraction) (in propylene glycol, 293.15 K) was 0.00171. For the same molecule, the solubility (mole fraction) (in propylene glycol, 298.15 K) was 0.00204, the solubility (mole fraction) (in propylene glycol, 303.15 K) was 0.00237 and the solubility (mole fraction) (in propylene glycol, 308.15 K) was 0.00281. The solubility (mole fraction) (in propylene glycol, 313.15 K) was 0.00327, the solubility (mole fraction) (in propylene glycol, 318.15 K) was 0.00379 and the solubility (mole fraction) (in propylene glycol, 323.15 K) was 0.00448. The solubility (mole fraction) (in water, 278.15 K) was 3.62e-05, the solubility (mole fraction) (in water, 283.15 K) was 4.42e-05 and the solubility (mole fraction) (in water, 288.15 K) was 5.21e-05. The solubility (mole fraction) (in water, 293.15 K) was 6.29e-05, the solubility (mole fraction) (in water, 298.15 K) was 7.43e-05 and the solubility (mole fraction) (in water, 303.15 K) was 8.97e-05. For the same molecule, the solubility (mole fraction) (in water, 308.15 K) was 0.000105, the solubility (mole fraction) (in water, 313.15 K) was 0.000123 and the solubility (mole fraction) (in water, 318.15 K) was 0.000143. The solubility (mole fraction) (in water, 323.15 K) was 0.000168.

— BigSolDB 2.1
